Reference: patent US11377442B2, “Small molecule agonists and antagonists of NR2F6 activity” (ZANDER THERAPEUTICS, INC., priority 2016, dated 2022)
Where two headings read alike, the source gives them in different places.

Columns and labels:
Type in all cases: cell-based
[1] = biological target: T1, ERα (Homo sapiens, UniProt P03372); assay: Counterscreening, Firefly signal with ERα transient transfection (Firefly_ERa)
T1 construct: expressed in transfected cells
T1 sequence (P03372 1-595): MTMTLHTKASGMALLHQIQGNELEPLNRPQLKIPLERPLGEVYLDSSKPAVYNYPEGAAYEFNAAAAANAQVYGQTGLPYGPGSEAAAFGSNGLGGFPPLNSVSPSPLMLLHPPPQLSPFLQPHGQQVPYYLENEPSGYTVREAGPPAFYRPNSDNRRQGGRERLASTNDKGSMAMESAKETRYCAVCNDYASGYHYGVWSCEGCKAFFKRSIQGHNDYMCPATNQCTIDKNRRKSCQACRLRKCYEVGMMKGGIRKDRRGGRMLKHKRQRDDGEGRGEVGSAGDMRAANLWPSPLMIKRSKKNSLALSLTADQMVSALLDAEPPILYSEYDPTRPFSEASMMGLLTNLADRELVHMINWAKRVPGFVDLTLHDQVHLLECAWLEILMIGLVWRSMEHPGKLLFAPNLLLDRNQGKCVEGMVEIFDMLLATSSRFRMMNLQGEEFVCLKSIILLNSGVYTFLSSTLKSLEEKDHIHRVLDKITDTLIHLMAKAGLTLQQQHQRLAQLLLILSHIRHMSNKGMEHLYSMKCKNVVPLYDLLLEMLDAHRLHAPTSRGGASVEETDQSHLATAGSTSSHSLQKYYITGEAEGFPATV

[2] = system: Renilla; assay: Renilla signal in NR2F6 agonist screening, cmpd/DMSO; conditions: for fold induction at 2 µM / fold induction at 10 µM / fold induction at 40 µM: Renilla, read-out: Renilla F4, cmpd/DMSO (mean)
[3] = biological target: T2, NR2F6 (Homo sapiens, UniProt P10588); assay: NR2F6 agonist screening, Firefly signal cmpd/DMSO; conditions: for activity (in words): screening result
T2 construct: expressed in transfected cells; also transient transfection
T2 sequence (P10588 1-404): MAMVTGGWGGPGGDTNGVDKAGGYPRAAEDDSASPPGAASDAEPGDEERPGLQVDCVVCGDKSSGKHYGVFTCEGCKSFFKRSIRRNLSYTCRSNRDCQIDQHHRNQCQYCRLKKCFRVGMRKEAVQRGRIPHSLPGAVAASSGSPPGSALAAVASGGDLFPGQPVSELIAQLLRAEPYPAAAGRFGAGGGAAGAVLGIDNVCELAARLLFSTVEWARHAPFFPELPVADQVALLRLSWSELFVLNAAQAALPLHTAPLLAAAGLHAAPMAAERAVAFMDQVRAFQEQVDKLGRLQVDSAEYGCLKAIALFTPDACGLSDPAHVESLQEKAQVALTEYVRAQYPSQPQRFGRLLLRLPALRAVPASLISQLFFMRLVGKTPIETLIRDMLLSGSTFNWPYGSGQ

[4] = system: Renilla_ERa; assay: Renilla signal in ERα counterscreen (Renilla_ERa); conditions: for fold induction at 2 µM / fold induction at 10 µM / fold induction at 40 µM: read-out: Renilla ERalpha transient, cmpd/DMSO (mean)
[5] = biological target: T1, ERα; assay: Counterscreening, Firefly signal with ERα transient transfection (Firefly_ERa); conditions: 10 uM
Method: The methodology for screening candidate compounds as NR2F6 agonists was as follows: For primary screening, hit criteria was ACT %>DMSO control+5*SD (DSO control) at 10 μM, or any compound with S/B>2. For rescreening, hit criteria was ACT %>DMSO control+3*SD (DSO control) in each replicate at 10 μM. For counterscreening, hit criteria was mean ACT<DMSO control+3*SD (DMSO control) with ERα transient transfection in duplicate at 10 μM.

SMILES	Firefly ERalpha transient, cmpd/DMSO (mean) ([1]; 2 uM)	Firefly ERalpha transient, cmpd/DMSO (mean) ([1]; 40 uM)	fold induction at 2 µM ([2]; 2 uM, clone F4)	fold induction at 10 µM ([2]; 10 uM, clone F4)	fold induction at 40 µM ([2]; 40 uM, clone F4)	Firefly F4, cmpd/DMSO (mean) ([3]; 2 uM, clone F4)	Firefly F4, cmpd/DMSO (mean) ([3]; 10 uM, clone F4)	Firefly F4, cmpd/DMSO (mean) ([3]; 40 uM, clone F4)	fold induction at 2 µM ([4]; 2 uM)	fold induction at 10 µM ([4]; 10 uM)	fold induction at 40 µM ([4]; 40 uM)	Firefly ERalpha transient, cmpd/DMSO (mean) [5]	further results
CS(=O)(=O)Nc1ccc([N+](=O)[O-])c2nonc12 [Compound Z13]													Firefly ERalpha transient, cmpd/DMSO (mean) ([1]; Table 15, 2 uM): 1.2; Firefly ERalpha transient, cmpd/DMSO (mean) ([1]; Table 15, 40 uM): 1.1; Renilla F4, cmpd/DMSO (mean) ([2]; Table 15, 2 uM): 0.8; Renilla F4, cmpd/DMSO (mean) ([2]; Table 15, 10 uM): 0.7; Renilla F4, cmpd/DMSO (mean) ([2]; Table 15, 40 uM): 0.4; Firefly F4, cmpd/DMSO (mean) ([3]; Table 15, 2 uM): 1.0; Firefly F4, cmpd/DMSO (mean) ([3]; Table 15, 10 uM): 0.9; Firefly F4, cmpd/DMSO (mean) ([3]; Table 15, 40 uM): 1.6; Renilla ERalpha transient, cmpd/DMSO (mean) ([4]; Table 15, 2 uM): 0.8; Renilla ERalpha transient, cmpd/DMSO (mean) ([4]; Table 15, 10 uM): 0.6; Renilla ERalpha transient, cmpd/DMSO (mean) ([4]; Table 15, 40 uM): 0.4; Firefly ERalpha transient, cmpd/DMSO (mean) ([5]; Table 15): 1.7
CC(=O)Nc1ccc(Br)c2nonc12 [Compound Z14]													Firefly ERalpha transient, cmpd/DMSO (mean) ([1]; Table 15, 2 uM): 1.0; Firefly ERalpha transient, cmpd/DMSO (mean) ([1]; Table 15, 40 uM): 1.0; fold induction at 2 µM ([2]; Table 15, 2 uM): 0.8; fold induction at 10 µM ([2]; Table 15, 10 uM): 0.9; fold induction at 40 µM ([2]; Table 15, 40 uM): 1; Firefly F4, cmpd/DMSO (mean) ([3]; Table 15, 2 uM): 1.2; Firefly F4, cmpd/DMSO (mean) ([3]; Table 15, 10 uM): 0.8; Firefly F4, cmpd/DMSO (mean) ([3]; Table 15, 40 uM): 1.2; fold induction at 2 µM ([4]; Table 15, 2 uM): 1.1; fold induction at 10 µM ([4]; Table 15, 10 uM): 1.1; fold induction at 40 µM ([4]; Table 15, 40 uM): 1; Firefly ERalpha transient, cmpd/DMSO (mean) ([5]; Table 15): 1.2
CC(=O)Nc1ccc(NS(C)(=O)=O)c2nonc12 [Compound Z15]													Firefly ERalpha transient, cmpd/DMSO (mean) ([1]; Table 15, 2 uM): 0.9; Firefly ERalpha transient, cmpd/DMSO (mean) ([1]; Table 15, 40 uM): 1.1; fold induction at 2 µM ([2]; Table 15, 2 uM): 0.8; fold induction at 10 µM ([2]; Table 15, 10 uM): 1.1; fold induction at 40 µM ([2]; Table 15, 40 uM): 1; Firefly F4, cmpd/DMSO (mean) ([3]; Table 15, 2 uM): 1.0; Firefly F4, cmpd/DMSO (mean) ([3]; Table 15, 10 uM): 0.5; Firefly F4, cmpd/DMSO (mean) ([3]; Table 15, 40 uM): 0.9; fold induction at 2 µM ([4]; Table 15, 2 uM): 1; fold induction at 10 µM ([4]; Table 15, 10 uM): 1; fold induction at 40 µM ([4]; Table 15, 40 uM): 0.9; Firefly ERalpha transient, cmpd/DMSO (mean) ([5]; Table 15): 1.1
CCOC(=O)c1cnc2c(C)cc(C)cc2c1N1CCCC(N(C)C)C1 (centres unmarked) [Compound Z27]	1.3	0.5	1.2	1.2	0.9	1.3	1.3	0.7	1.2	1.2	0.8	2.1	
Cc1cc(C)c2ncc(C(=O)O)c(NCCCN(C)C)c2c1 [Compound Z28]	1.8	1.3	1	1.2	1.2	1.0	0.9	1.3	1.1	1.3	1	1.1	
Cc1cc(C)c2ncc(C(=O)OC(C)C)c(NCCCN(C)C)c2c1 [Compound Z29]	1.0	6.7	0.8	0.9	0.5	1.3	1.1	1.1	0.8	1.2	0.7	1.2	
CNC(=O)c1cnc2c(C)cc(C)cc2c1NCCCN(C)C [Compound Z30]	1.4	1.4	1.1	1.1	0.7	1.4	1.1	1.2	1.1	1.1	1.6	1.1	
Cc1cc(C)c2ncc(C(=O)N(C)C)c(NCCCN(C)C)c2c1 [Compound Z31]	0.9	1.3	1.1	1	1	0.8	0.9	1.1	1	1	1	1.6	
Cc1cc(C)c2ncc(C(=O)N3CCCC3)c(NCCCN(C)C)c2c1 [Compound Z32]	1.8	1.5	1	1	1.3	1.8	0.9	1.5	1	1.1	0.8	0.8	
CCOC(=O)c1cnc2ccc(C)cc2c1NCCCN(C)C [Compound Z33]	2.1	8.8	1.1	1	0.6	1.7	2.0	6.6	1	1.5	0.9	1.8	activity (in words) [3]: particularly good activity
CCOC(=O)c1cnc2cc(C)c(C)cc2c1NCCCN(C)C [Compound Z34]	2.0	0.9	1.2	0.8	0.6	1.6	3.8	0.7	1.5	1	0.7	10.3	activity (in words) [3]: particularly good activity
CCOC(=O)c1cnc2c(Cl)cc(Cl)cc2c1NCCCN(C)C [Compound Z35]	2.6	7.2	1.1	2	0.7	1.9	1.5	1.2	1.1	1.3	0.9	2.2	
CCOC(=O)c1cnc2c(Cl)cc(Cl)cc2c1NCCCN1CCCC1 [Compound Z36]	1.2	5.8	1	1.8	0.6	0.7	1.8	0.7	1.2	1.6	0.8	1.6	
